Reference: patent publication US6518316B1, “Cytokine production and tyrosine kinase inhibitors” (Xenova Limited, priority 1998, dated 2003)
Like-named read-outs stand apart in the source and are kept apart here.

Legend:
T cells = experiment: Toxicity to T cells; type: cell-based, human; conditions: 0.06 to 7 μM
[1] = system: IL-2 production by Jurkat E6-1 cells; experiment: Cytokine (IL-2) release from PMA pre-treated, anti-CD28 stimulated Jurkat E6-1 cells (DELFIA); type: cell-based; conditions: Homo sapiens
Description: Jurkat E6-1 cell line was obtained from American Tissue Culture Collection (ATCC, Rockville, USA). The cells were pre-treated with 3 ng/ml phorbol myristate acetate (PMA) for three hours, washed and exposed to dose ranges of the compound to be tested followed by the addition of 5 μg/ml anti-CD28.
After 18 hours incubation at 37° C. and 5% CO2, cell culture supernatants were harvested for determination of IL-2 secretion by Dissociation Enhanced Lanthanide Fluorescence Immuno Assay (DELFIA). The effect of compound on cell cytotoxicity was determined using a redox potential sensitive dye, resazurin. Effects on protein synthesis were determined by investigation of [^3H] leucine uptake.

[2] = system: TNF-α secretion by monocytes; experiment: Cytokine (TNF-α) release from LPS stimulated monocytes (DELFIA); type: cell-based; conditions: Homo sapiens, Monocyte
Description: The effect of compound (Ia) on TNF-α release was investigated using a previously described method (Bakouche, O. et al., (1992), J. Immunol: 14, 84-91). Human monocytes were purified by elutriation from Buffy coats obtained from normal healthy donors after the separation of peripheral blood mononuclear cells (PBMC) on Lymphoprep. The monocytes were suspended in RPMI 1640 with 5% FBS and exposed to dose ranges of the compound to be tested followed by the addition of 1 ng/ml LPS. After incubation for 18 hours at 37° C. and 5% CO2 cell culture supernatants were harvested and stored at −70° C. Effects on TNF-α release were determined using a DELFIA.

recombinant abl kinase = recombinant abl kinase (Homo sapiens, UniProt P00519); experiment: Inhibition of tyrosine kinase activity (abl kinase, LANCE time resolved fluorescence); type: biochemical
Excerpt: Phosphorylation of the peptide substrate was detected using a non-separation time resolved fluorescence assay (LANCE™) using anti-phosphotyrosine conjugated europium and streptavidin conjugated allophycocyanin (APC).

[3] = system: IL2 production by T cells; experiment: Cytokine (IL-2) release from purified T cells stimulated with anti-CD3 and anti-CD28 (DELFIA); type: cell-based; conditions: Homo sapiens, T-cell
Excerpt: The effect of compound (Ia) on IL-2 release was investigated using a previously described method (Van Cool S. W. et al., (1993) J. Immunol. 150: 3254-3263). T cells were purified by depletion of B cells and monocytes from Buffy coats obtained from normal healthy donors following separation of human peripheral blood mononuclear cells (PBMC) on Lymphoprep. Purified T cells were suspended in RPMI 1640 supplemented with 5% fetal bovine serum (FBS) and aliquoted into 96 well plates coated with anti-CD3. Cells were exposed to dose ranges of the compound to be tested followed by the addition of 5 μg/ml anti-CD28 and incubated for 18 hours at 37° C. and 5% CO2. IL-2 secretion in cell culture supernatants was determined using IL-2 DELFIA.

TNF-α = TNF-α release from PHA and LPS stimulated whole blood (DELFIA); type: cell-based; conditions: Homo sapiens
Description: (§1) Whole blood samples obtained from up to seven normal healthy volunteers were diluted in an equal volume of RPMI 1640 with 5% FBS and exposed to dose ranges of compound (Ia) followed by the addition of 10 μg/ml phytohaemagglutinin (PHA) and 100 ng/ml LPS. After incubation for 48 hours at 37° C. and 5% CO2 serum samples were harvested for determination of effect on IL-2 and TNF-α secretion using DELFIAs specific for each cytokine respectively.

IL-2 = IL-2 release from PHA and LPS stimulated whole blood (DELFIA); type: cell-based; conditions: Homo sapiens
Description: as §1

Chain of recombinant abl kinase (P00519 whole entry): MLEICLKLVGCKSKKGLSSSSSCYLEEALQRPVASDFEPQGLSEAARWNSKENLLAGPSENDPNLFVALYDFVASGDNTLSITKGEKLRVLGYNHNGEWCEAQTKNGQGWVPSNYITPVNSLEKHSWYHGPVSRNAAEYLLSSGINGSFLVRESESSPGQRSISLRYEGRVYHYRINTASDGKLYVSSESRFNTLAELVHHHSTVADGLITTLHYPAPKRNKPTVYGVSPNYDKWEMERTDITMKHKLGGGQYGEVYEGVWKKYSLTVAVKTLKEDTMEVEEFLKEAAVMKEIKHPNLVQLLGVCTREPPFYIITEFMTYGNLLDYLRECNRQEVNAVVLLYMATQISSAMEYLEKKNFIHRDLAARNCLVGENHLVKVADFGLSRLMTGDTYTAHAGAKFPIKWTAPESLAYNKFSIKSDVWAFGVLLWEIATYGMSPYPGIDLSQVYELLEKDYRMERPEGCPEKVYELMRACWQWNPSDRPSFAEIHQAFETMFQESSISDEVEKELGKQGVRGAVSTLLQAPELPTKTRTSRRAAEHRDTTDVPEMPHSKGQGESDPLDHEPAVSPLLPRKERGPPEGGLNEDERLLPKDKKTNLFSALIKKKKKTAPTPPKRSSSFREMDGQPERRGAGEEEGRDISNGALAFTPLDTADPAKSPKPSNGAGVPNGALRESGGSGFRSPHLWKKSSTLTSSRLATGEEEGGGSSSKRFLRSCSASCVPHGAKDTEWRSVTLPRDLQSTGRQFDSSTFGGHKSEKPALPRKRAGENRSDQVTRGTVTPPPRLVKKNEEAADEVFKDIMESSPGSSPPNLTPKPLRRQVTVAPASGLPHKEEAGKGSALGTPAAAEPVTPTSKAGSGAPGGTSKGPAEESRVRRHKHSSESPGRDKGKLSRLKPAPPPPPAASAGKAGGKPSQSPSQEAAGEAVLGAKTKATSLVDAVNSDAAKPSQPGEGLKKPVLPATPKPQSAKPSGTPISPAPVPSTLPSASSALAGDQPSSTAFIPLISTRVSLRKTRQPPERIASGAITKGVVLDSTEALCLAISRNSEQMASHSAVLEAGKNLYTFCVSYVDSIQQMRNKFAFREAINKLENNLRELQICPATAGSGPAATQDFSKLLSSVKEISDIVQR

## CO[C@@H]1[C@@H]2C(=C3CCC(=O)c4c(O)ccc2c43)c2cccc(O)c2[C@@H]1O (relative stereo) [Compound (Ia)]
T cells
  toxicity to T cells: not toxic
[1]; Jurkat E6.1, PMA pre-treated, anti-CD28, 18 hours, read-out: IC50 for the inhibition of anti-CD28 induced IL-2 production by Jurkat E6-1 cells
  IC50: 340 nM
[1]; Jurkat E6.1, 0.056 μM, read-out: % Inhibition of anti-CD28 induced IL-2 by PMA pre-treated Jurkat E6-1
  inhibition at 0.056 µM: 29%
[1]; Jurkat E6.1, 0.11 μM, read-out: % Inhibition of anti-CD28 induced IL-2 by PMA pre-treated Jurkat E6-1
  inhibition at 0.11 µM: 30.5%
[1]; Jurkat E6.1, 0.22 μM, read-out: % Inhibition of anti-CD28 induced IL-2 by PMA pre-treated Jurkat E6-1
  inhibition at 0.22 µM: 36%
[1]; Jurkat E6.1, 0.44 μM, read-out: % Inhibition of anti-CD28 induced IL-2 by PMA pre-treated Jurkat E6-1
  inhibition at 0.44 µM: 57.8%
[1]; Jurkat E6.1, 0.89 μM, read-out: % Inhibition of anti-CD28 induced IL-2 by PMA pre-treated Jurkat E6-1
  inhibition at 0.89 µM: 85.4%
[1]; Jurkat E6.1, 1.8 μM, read-out: % Inhibition of anti-CD28 induced IL-2 by PMA pre-treated Jurkat E6-1
  inhibition at 1.8 µM: 92.2%
[1]; Jurkat E6.1, 3.6 μM, read-out: % Inhibition of anti-CD28 induced IL-2 by PMA pre-treated Jurkat E6-1
  inhibition at 3.6 µM: 89.1%
[1]; Jurkat E6.1, 7.1 μM, read-out: % Inhibition of anti-CD28 induced IL-2 by PMA pre-treated Jurkat E6-1
  inhibition at 7.1 µM: 91.5%
[2]; 0.09 µM, read-out: % Inhibition of LPS induced TNF-a by monocytes
  inhibition at 0.09 µM: 19%
[2]; 0.18 µM, read-out: % Inhibition of LPS induced TNF-a by monocytes
  inhibition at 0.18 µM: 32.1%
[2]; 0.36 µM, read-out: % Inhibition of LPS induced TNF-a by monocytes
  inhibition at 0.36 µM: 48.1%
[2]; 0.7 µM, read-out: % Inhibition of LPS induced TNF-a by monocytes
  inhibition at 0.7 µM: 57.6%
[2]; 1.4 µM, read-out: % Inhibition of LPS induced TNF-a by monocytes
  inhibition at 1.4 µM: 73.2%
[2]; 2.9 µM, read-out: % Inhibition of LPS induced TNF-a by monocytes
  inhibition at 2.9 µM: 80%
[2]; 5.7 µM, read-out: % Inhibition of LPS induced TNF-a by monocytes
  inhibition at 5.7 µM: 89%
[2]; 18 hours, read-out: IC50 for inhibition of LPS induced TNF-α secretion by monocytes
  IC50: 420 nM
Recombinant abl kinase
  concentrations at which phosphorylation of the peptide by abl kinase was inhibited: 0.001 to 5.2 µM
Recombinant abl kinase; 0.001 μM
  inhibition at 0.001 µM: 39%
Recombinant abl kinase; 0.01 μM
  inhibition at 0.01 µM: 56.2%
Recombinant abl kinase; 0.081 μM
  inhibition at 0.081 µM: 86.3%
Recombinant abl kinase; 0.65 μM
  inhibition at 0.65 µM: 98.6%
Recombinant abl kinase; 5.2 μM
  inhibition at 5.2 µM: 100%
Recombinant abl kinase; abl kinase, peptide 6-20 p34cdc substrate
  IC50: 6 nM
[3]; 0.056 µM, read-out: % Inhibition of anti-CD-28 and Anti-CD3 induced IL-2 by T cells
  inhibition at 0.056 µM: 29.8%
[3]; 0.11 µM, read-out: % Inhibition of anti-CD-28 and Anti-CD3 induced IL-2 by T cells
  inhibition at 0.11 µM: 47.3%
[3]; 0.22 µM, read-out: % Inhibition of anti-CD-28 and Anti-CD3 induced IL-2 by T cells
  inhibition at 0.22 µM: 106%
[3]; 0.44 µM, read-out: % Inhibition of anti-CD-28 and Anti-CD3 induced IL-2 by T cells
  inhibition at 0.44 µM: 88.3%
[3]; 0.89 µM, read-out: % Inhibition of anti-CD-28 and Anti-CD3 induced IL-2 by T cells
  inhibition at 0.89 µM: 98.6%
[3]; 1.8 µM, read-out: % Inhibition of anti-CD-28 and Anti-CD3 induced IL-2 by T cells
  inhibition at 1.8 µM: 100%
[3]; 3.6 µM, read-out: % Inhibition of anti-CD-28 and Anti-CD3 induced IL-2 by T cells
  inhibition at 3.6 µM: 100%
[3]; 7.1 µM, read-out: % Inhibition of anti-CD-28 and Anti-CD3 induced IL-2 by T cells
  inhibition at 7.1 µM: 100%
[3]; 18 hours, read-out: IC50 for inhibition of anti-CD3 and anti-CD28 induced IL2 production by T cells
  IC50: 120 nM
TNF-α; Donor 1, read-out: IC50 Inhibition of TNF-α
  IC50: 14000 nM
TNF-α; Donor 2, read-out: IC50 Inhibition of TNF-α
  IC50: 14000 nM
TNF-α; Donor 3, read-out: IC50 Inhibition of TNF-α
  IC50: 700 nM
TNF-α; Donor 4, read-out: IC50 Inhibition of TNF-α
  IC50: > 2700 nM
TNF-α; Donor 5, read-out: IC50 Inhibition of TNF-α
  IC50: 5300 nM
TNF-α; Donor 6, read-out: IC50 Inhibition of TNF-α
  IC50: 3000 nM
IL-2; Donor 1, read-out: IC50 Inhibition of IL-2
  IC50: 220 nM
IL-2; Donor 2, read-out: IC50 Inhibition of IL-2
  IC50: 1200 nM
IL-2; Donor 3, read-out: IC50 Inhibition of IL-2
  IC50: 430 nM
IL-2; Donor 4, read-out: IC50 Inhibition of IL-2
  IC50: > 2700 nM
IL-2; Donor 5, read-out: IC50 Inhibition of IL-2
  IC50: < 400 nM
IL-2; Donor 6, read-out: IC50 Inhibition of IL-2
  IC50: < 400 nM
